From patent publication US20250241902A1, “METHODS, COMPOSITIONS AND SYSTEMS FOR EVALUATION OF VISUAL FUNCTION” (BELITE BIO, INC, priority 2022, published 2025)
Several values for one entry are separate records, joined by “and”; a condition that tells them apart may be missing. Equal entries are not always repeated.

What was measured:
Type in all cases: in vivo, human
[1] = tested on: adolescent STGD1 patients; assay: Clinical study: ellipsoid zone (EZ) defect width by SD-OCT
From the text: (§1) In some embodiments, spectral domain-optical coherence tomography (SD-OCT) is used for evaluation of ocular disease or visual function. In some embodiments, SD-OCT provides in vivo cross-sectional and […] visualization of the retina and the RPE. In some embodiments, SD-OCT is used to detect the presence of RPE atrophy. In some embodiments, SD-OCT is used to evaluate ellipsoid zone (EZ) defect width. In some embodiments, the EZ line provides information on the integrity of the photoreceptors. In some embodiments, the EZ line provides useful information in early disease. In some embodiments, an image of SD-OCT is used to evaluate the central subfield retina thickness (CST). In some embodiments, an image of SD-OCT is used to evaluate the middle subfield retina thickness (MST). In some embodiments, an image of SD-OCT is used to evaluate the outer subfield retina thickness (OST). The therapeutic effect of a compound of Formula (I), also known as Tinlarebant, was evaluated in a group of individuals with adolescent STGD. The treatment covered Phase 1b and Phase 2. Phase 1b included a 4-week treatment and a 14-day follow-up. Phase 2 included a 2-year treatment and 1-month follow-up. A total of 13 individuals received the treatment: 5 males and 8 females. All 13 individuals had STGD 1 aged 12-18 years old. All 13 individuals received the treatment of a compound of Formula (I), a RBP4 inhibitor. The clinical study evaluated ocular and systemic safety and tolerability of the compound and determined the optimal dose, pharmacokinetics (PK), and […]. The study measured visual improvement by best corrected visual acuity (BCVA) test, self-reported visual questionnaire test, the change in lesion size by FAF, the change in retinal thickness and morphology by SD-OCT, the change in retinal sensitivity by microperimetry, and the change in quantitative AF. In addition, this study evaluated correlation between reduction in RBP4 and rate of lesion growth including change in autofluorescence.

[2] = tested on: adolescent STGD1 patients; assay: Clinical study: retinal thickness by SD-OCT (CST, MST, OST)
From the text: as §1

[3] = tested on: adolescent STGD1 patients; assay: Clinical study (Phase 1b/2): ocular and systemic safety and tolerability
Description: (§2) The therapeutic effect of a compound of Formula (I), also known as Tinlarebant, was evaluated in a group of individuals with adolescent STGD. The treatment covered Phase 1b and Phase 2. Phase 1b included a 4-week treatment and a 14-day follow-up. Phase 2 included a 2-year treatment and 1-month follow-up. A total of 13 individuals received the treatment: 5 males and 8 females. All 13 individuals had STGD 1 aged 12-18 years old. All 13 individuals received the treatment of a compound of Formula (I), a RBP4 inhibitor.
(§3) The clinical study evaluated ocular and systemic safety and tolerability of the compound and determined the optimal dose, pharmacokinetics (PK), and […]. The study measured visual improvement by best corrected visual acuity (BCVA) test, self-reported visual questionnaire test, the change in lesion size by FAF, the change in retinal thickness and morphology by SD-OCT, the change in retinal sensitivity by microperimetry, and the change in quantitative AF. In addition, this study evaluated correlation between reduction in RBP4 and rate of lesion growth including change in autofluorescence.
In addition, the treatment was able to maintain 80%-90% RBP4 reduction from baseline throughout the study. All patients received at least 7 months of the treatment. […] Delayed dark adaptation, night vision impairment, and xanthopsia/chromatopsia were the only drug related ophthalmic adverse events.

[4] = tested on: adolescent STGD1 patients; assay: Clinical study: lesion size by fundus autofluorescence (FAF; DDAF/QDAF); conditions: for FAF lesion area: subject 3, right eye
From the text: Fundus autofluorescence (FAF) imaging is used as an endpoint in clinical trials. FAF is used to detect lesion growth with more than one timepoint of measurements. The change in lesion area measured by FAF can be plotted against time to calculate lesion growth rate, e.g., how fast or slow a patient's macula or retina is degenerating as compared to placebo. FAF imaging is used to compare the rate of anatomical or structural deterioration or change to evaluate a drug or treatment's therapeutic effect, e.g., reduced worsening of the retina degeneration.
In some embodiments, fundus autofluorescence (FAF) is used for evaluation of ocular disease or visual function. In some embodiments, one or more retina images of FAF is used for detection of atrophic areas. In some embodiments, one or more retina images of FAF is used to gain detailed insight into the health of the retinal pigment epithelium (RPE). In some embodiments, one or more images of FAF may be high-contrast retina images. In some embodiments, two types of decreased autofluorescence (DAF) may be quantified. In some embodiments, one type of DAF may be definite DAF (DDAF) which includes an area having a level of darkness being defined as qualitatively definite. In some embodiments, the other type of DAF may be questionable DAF (QDAF) which includes an area having a level of darkness being defined as qualitatively questionable. In some embodiments, the size of decreased autofluorescence (DAF) lesion may be the sum of all DDAF and QDAF. In some embodiments, DAF may be expressed as an area in square millimeters (mm^2).
as §2, §3

[5] = tested on: adolescent STGD1 patients; assay: Clinical study: best corrected visual acuity (BCVA) test
From the text: In some embodiments, visual acuity may be evaluated with a logarithm of the minimum angle of resolution chart (log MAR chart). A log MAR chart comprises rows of letters that are used to estimate visual acuity. Zero log MAR may indicate standard vision, positive values may indicate poor vision and negative values may indicate good vision. In some embodiments, the best corrected visual acuity (BCVA) early treatment diabetic retinopathy study (ETDRS) letters score can be calculated with the following formula: […]
as §2, §3

[6] = tested on: adolescent STGD1 patients; assay: Clinical study: quantitative autofluorescence (qAF)
From the text: In some embodiments, a method for measuring quantitative autofluorescence (qAF) is used or evaluation of ocular disease or visual function. In some embodiments, the qAF method may incorporate an internal fluorescent reference to account for variable laser power and detector sensitivity. In some embodiments, an intensity of AF may be calculated against the calibrated internal fluorescence reference standard in the optical pathway.
as §2, §3

[7] = subject 3, left eye, phase 2 baseline
[8] = subject 3, left eye, phase 2 month 6
[9] = subject 11, both eyes, phase 2 week 1 vs week 9
[10] = subject 4, left eye, phase 2 baseline
[11] = subject 4, left eye, phase 2 month 6

CC(=O)N1CCc2c(C(=O)N3CCC(c4ccc(F)c(F)c4C(F)(F)F)CC3)n[nH]c2C1 [Tinlarebant]
patients with improvement in EZ defect width (narrowing) in at least one eye ([1]; cohort): 5 patients
patients with improvement in EZ defect width in both eyes ([1]; cohort): 3 patients
EZ defect width, trend ([1]; cohort, summary): trend in reducing EZ defect width
EZ defect width average increase ([1]; left eye, cohort): 0.48±0.26 mm
EZ defect width average increase ([1]; right eye, cohort): 0.39±0.27 mm
ellipsoid zone (EZ) width change ([1]; subject 3, especially left eye, phase 2 week 1 vs week 9): decreased in both eyes
EZ defect width reduction ([1]; subject 3, left eye): 0.20 mm
EZ defect width [1, 7]: 2.91 mm
EZ defect width [1, 8]: 2.71 mm
EZ defect width reduction ([1]; subject 3, right eye): 0.13 mm
EZ defect width ([1]; subject 4, right eye, Phase 2 Baseline): 1.79 mm
EZ defect width ([1]; subject 4, right eye, Phase 2 Month 6): 1.85 mm
EZ defect width reduction ([1]; subject 6, left eye): 0.22 mm
EZ defect width reduction ([1]; subject 6, right eye): 0.27 mm
EZ width change [1, 9]: stabilized
EZ defect width ([1]; subject 11, left eye, Phase 2 Baseline): 2.20 mm
EZ defect width ([1]; subject 11, left eye, Phase 2 Month 6): 2.29 mm
patients with improvement (increase in thickness) or no change in OST in both eyes ([2]; cohort): 4 patients
patients with no change or growth in MST in at least one eye ([2]; cohort): 5 patients
patients with no to little change in CST in at least one eye ([2]; cohort): 5 patients
CST change, Left Eye (mean ± SD, μm) ([2]; cohort means, Table 4): −8.83 ± 1.91 μm
CST change, Right Eye (mean ± SD, μm) ([2]; cohort means, Table 4): −10.15 ± 1.5 μm
MST change, Left Eye (mean ± SD, μm) ([2]; cohort means, Table 4): −7.92 ± 2.13 μm
MST change, Right Eye (mean ± SD, μm) ([2]; cohort means, Table 4): −6.77 ± 1.74 μm
OST change, Left Eye (mean ± SD, μm) ([2]; cohort means, Table 4): −7.60 ± 2.62 μm
OST change, Right Eye (mean ± SD, μm) ([2]; cohort means, Table 4): −8.08 ± 2.47 μm
CST average thinning ([2]; left eye, cohort): 7.6±2.14 microns
MST average thinning ([2]; left eye, cohort): 7.2±2.54 microns
OST average thinning ([2]; left eye, cohort): 3.11±3.5 microns
CST average thinning ([2]; right eye, cohort): 10.27±2.2 microns
MST average thinning ([2]; right eye, cohort): 6.27±2.03 microns
OST average thinning ([2]; right eye, cohort): 3.8±3.08 microns
average thickness: center [2, 7]: 97 micron
average thickness: central max [2, 7]: 202 micron
average thickness: central min [2, 7]: 97 micron
average thickness: marker [2, 7]: 97 micron
average thickness: center [2, 8]: 112 micron
average thickness: central max [2, 8]: 216 micron
average thickness: central min [2, 8]: 104 micron
average thickness: marker [2, 8]: 112 micron
change in CST, MST, or OST ([2]; subject 3, overall): little to no change
change of OST ([2]; subject 4, both eyes, especially left, phase 2 week 1 vs week 9): increase
change of MST ([2]; subject 4, either eye, phase 2 week 1 vs week 9): little to no change
average thickness: center [2, 10]: 63 micron
average thickness: central max [2, 10]: 218 micron
average thickness: central min [2, 10]: 57 micron
average thickness: marker [2, 10]: 60 micron
average thickness: center [2, 11]: 58 micron
average thickness: central max [2, 11]: 199 micron
average thickness: central min [2, 11]: 54 micron
average thickness: marker [2, 11]: 56 micron
retinal thickness growth (stated after OST) ([2]; subject 11, both eyes (one value per eye, eye not assigned)): 15 microns and 16 microns
change of OST [2, 9]: increase
change of CST or MST ([2]; subject 11, either eye, phase 2 week 1 vs week 9): little to no change
safety and tolerability ([3]; 5 mg daily, adolescent STGD1 patients): safe and well tolerated
adverse events requiring discontinuation of treatment ([3]; 13 patients): no adverse events required discontinuation of treatment
vital signs, physical exams, electrocardiogram (ECG), organ functions ([3]; 13 patients): No clinical significant findings
severe adverse events ([3]; 13 patients, at least 7 months of treatment): No severe adverse events
safety and tolerability ([3]; after approximately 7 months of treatment (1 month Phase 1b, 6 months Phase 2)): safe and well tolerated
severity of delayed dark adaptation, night vision impairment, xanthopsia/chromatopsia (drug related ophthalmic adverse events) ([3]; all instances, 13 patients): mild and transient
symptoms in patients with delayed dark adaptation ([3]; human, in vivo): mostly asymptomatic
Delayed Dark Adaptation: Frequency (subject) ([3]; related adverse event): 8/13
Night Vision Impairment: % Recovered ([3]; related adverse event): 0/1
Night Vision Impairment: Frequency (subject) ([3]; related adverse event): 1/13
Xanthopsia/Chromatopsia: Frequency (subject) ([3]; related adverse event): 9/13
autofluorescence expansion (FAF), trend ([4]; cohort): trend of preventing or slowing autofluorescence expansion
patients who maintained no DDAF lesion growth ([4]; cohort): 12 of the 13
patients with no change or reduction in QDAF area in one or both eyes ([4]; cohort): 6 of 11
autofluorescence expansion (FAF), trend ([4]; cohort, listed as compound of Formula (I)): trend in preventing or slowing autofluorescence expansion
average change in QDAF area ([4]; left eye, cohort): 0.1±0.11 mm^2
average change in QDAF area ([4]; right eye, cohort): 0.3±0.11 mm^2
area size of QDAF ([4]; subject 3, either eye, phase 2 week 1 vs week 9): no increase
FAF lesion area ([4]; phase 2 baseline): 2.7 mm^2
FAF lesion area ([4]; phase 2 month 6): 2.7 mm^2
QDAF in size ([4]; subject 4, left eye, Phase 2 Baseline vs Month 6 (FIG. 2A)): stabilization
QDAF in size ([4]; subject 4, left or right eye, phase 2 week 1 vs week 9): no increase
QDAF/DDAF change [4, 9]: transition of QDAF to DDAF
patients with visual improvement in at least one eye (BCVA) ([5]; cohort of 13): 8 out of the 13
patients with visual improvement in both eyes (BCVA) ([5]; cohort of 13): 2 patients
visual improvement, summary ([5]; cohort, approximately 7 months): Majority of the patients showed visual improvement in at least one eye
BCVA average letters of gain ([5]; left eye, cohort): 1.9±1.32 letters
BCVA average letters of loss ([5]; right eye, cohort): −2.8±1.85 letters
BCVA ETDRS letters gained ([5]; subject 4, both eyes): 3 ETDRS letters
BCVA letters ([5]; subject 4, both eyes, intermediate value in 7-month treatment period): 50 letters
BCVA letters ([5]; subject 4, both eyes, last value in 7-month treatment period): 53 letters
BCVA letters ([5]; subject 4, both eyes, start of 7-month treatment period): 45 letters
BCVA letters gained ([5]; subject 10, both eyes, approximately 7-month treatment): 9 letters
BCVA letters gained ([5]; subject 11, left eye): 6 letters
BCVA change ([5]; subject 11, right eye): no change
autofluorescence (AF) based on quantitative AF ([6]; subject 3, both eyes, especially left, phase 2 week 1 vs week 9): decrease
qDAF value [6, 7]: 351
qDAF value [6, 8]: 268
qDAF value ([6]; subject 3, right eye, phase 2 baseline): 335
qDAF value ([6]; subject 3, right eye, phase 2 month 6): 275
